Assay results: patent US12421500B2, “Hepato-biliary-pancreatic tissues and methods of making same” (CHILDREN'S HOSPITAL MEDICAL CENTER, priority 2018, dated 2025)
“Also recorded” adds a separate entry of the source.

Tests used:
[1] = test system: posterior gut spheroid; assay: BMS493 pretreatment of anterior or posterior gut spheroids before fusion, HHEX and PDX1 immunostaining; assay type: cell-based, human; details: only posterior gut spheroid exposed prior to fusion; vs untreated control; FIG. 10
Description: FIG. 10. Abolishment of HHEX and PDX1 induction in posterior gut specific BMS493. BMS493 pretreated anterior or posterior gut spheroids were fused to induce HBP anlage formation. […] Scale bar: 200 μm
(§1) In support, Applicant exposed the bAP organoids at D9 to various RA signaling agonists or antagonists. […] Lateral plate mesoderm population acts as an activator for RA signaling during the specification in vivo^22-24. To implicate the cellular source for RA in the model system, RA signaling related genes were assessed in the isolated epithelial and non-epithelial cell populations. […] Complementing this, exposing only the posterior gut spheroid, and not the anterior gut spheroid to BMS493 prior to fusion suppressed the protein-level induction of HHEX and PDX1 (FIG. 10). […] Taken together, HBP progenitor self-specification derived from posterior region in boundary organoid model system is regulated by RA signals, and may be supported by co-differentiating anterior non-epithelial, most likely mesenchymal, lineages.
For whole mount immunohistochemical staining, spheroid and organoid were collected from Matrigel™ and removed remaining Matrigel™ by treating with Cell recovery solution at 4° C. for 30 min. The tissues were washed by PBS and were fixed in 4% PFA at 4° C. for overnight. […]

[2] = test system: E9.0 PROX1::GFP reporter mouse embryo; assay: E9.0 PROX1::GFP reporter mouse whole embryo culture with BMS493; details: after 2 days, vs DMSO control, FIGS. 11A and 11B
Description: FIGS. 11A and 11B. PROX1 inhibition by BMS493 exposure with E9.0 PROX1::GFP reporter mouse embryo explant culture. […] Retinoic acid receptors antagonist BMS493 treated group was compared with control (adding DMSO) group. 11A. Bright field image and GFP fluorescent image for embryo after culture. 11B. The area of GFP expressing parts was quantified from GFP image in (a). Scale bar: 1 mm
as §1
The Rotator-type Bottle Culture System (Ikemoto Scientific Technology Co., Ltd) was used for whole embryo culture. […]

[3] = test system: bAP organoids; assay: bAP organoids exposed to RA signaling agonists or antagonists, gene expression by qPCR; assay type: cell-based, human; details: bAP organoids exposed at D9; Day 11, three days culture; FIG. 2G
Protocol: FIG. 2A-2I. Self-emergence of hepato-biliary-pancreatic progenitors from boundary organoid without inductive factors. 2A. Generating PROX1-tdTomato reporter line by CRISPR-Cas9 gene editing system. 2B. PROX1-tdTomato expression in established PROX1 reporter iPSCs from Day 9 to Day 11. 2C. PROX1-tdTomato positive area in each organoid. AP, AA and PP combinations were evaluated. The tdTomato expression was confirmed in the cell membrane of boundary organoids in AP combination. 2D. Hepatic invagination in mouse liver primordium explant (Prox1::GFP) and human iPSC-derived boundary organoids (PROX1::m-tdTomato). 2E. The immunostaining of PROX1 in E8.75 mice embryo and boundary organoids at Day 13. 2F. Transcriptomic characterization of boundary organoids. Anterior, boundary, and posterior domains were dissected, separated, and applied for RNA sequencing. […] Heatmap was separated into 8 detailed groups (C1-C8) by unbiased hierarchical clustering. […] 2G. Gene expression of HHEX, PDX1, SOX2, and CDX2 at Day 11 with three days culture of retinoic acid, BMS493, R-75251, or WIN18446. 2H. […]
In support, Applicant exposed the bAP organoids at D9 to various RA signaling agonists or antagonists. […] To implicate the cellular source for RA in the model system, RA signaling related genes were assessed in the isolated epithelial and non-epithelial cell populations. […]

[4] = test system: Cholecystokinin A Receptor (CCKAR) expressing organoids; assay: CCK exposure of organoids: ductal response and amylase ELISA; assay type: cell-based, human
Description: FIG. 3A-3O. Modeling human hepato-biliary-pancreatic organogenesis. 3A. Illustration of dissection of PROX1 positive region from HBP organoids and image of before/after dissection. 3B. Optimization of cultured system with 1) Floating, 2) Embedded into Matrigel™, 3) Embedded into Matrigel™ and cultured with Transwell™ from D13, 4). Dissected, embedded into Matrigel™, and cultured with Transwell™ from D13. […] 3C. Morphogenesis of boundary organoids through 2 days from Day 13. 3D. Morphogenetical change of PROX1 dissected tissue from boundary organoids through 30 days of air-liquid interface cultured system. 3E. Stereomicroscopic image of Day 37 organoids. 3F. Boundary organoid has tdTomato expressing hepatobiliary tissues branched out for putative pancreatic domains, similar to cultured mouse E10.5 derived hepato-biliary-pancreas. […]
To determine whether longer-term culture can produce more mature tissue, organoids were cultured until D90. […] Furthermore, the immunofluorescent staining detected the expression of the pancreas marker PDX1 and NGN3, the liver marker PROX1, and the bile duct markers CK19 and SOX9 in the organoids (FIG. 3H). […] Given the Cholecystokinin A Receptor (CCKAR) expression in the organoids (FIG. 3N), organoids were exposed to CCK and the pancreatic secretory function was analyzed with an amylase Enzyme-linked immune sorbent assay (ELISA). […]

amylase secretion in supernatants (ELISA) ([4]; CCK treated vs untreated controls, 3 days-CCK, FIG. 3P)	ductal structures response to CCK ([4]; on the following day, FIG. 3O)	Molecule	protein-level induction of HHEX and PDX1 at boundary [1]	PROX1 expressing cells (GFP area) [2]	gene expression of HHEX [3]	gene expression of PDX1 [3]
–	–	CC1(C)CC=C(C#Cc2ccccc2)c2cc(/C=C/c3ccc(C(=O)O)cc3)ccc21 [BMS493]	suppressed; also recorded: inhibited	significant inhibition	strongly suppressed	strongly suppressed
increased	constricted	cholecystokinin [CCK]	–	–	–	–
